Data as given in US8669054B2, “Marker for gastric cancer and method for detecting gastric cancer” (The Chinese University of Hong Kong, priority 2010, dated 2014).

Test system: PAX5 gene expression in methylated GC and CRC cell lines
Assay: Demethylation treatment with 5-Aza; PAX5 expression by semiquantitative RT-PCR
Assay type: cell-based, human
Conditions: 2 μM 5-Aza for 5 days; AGS, MKN28, KatoIII, HCT116, SW620 and SW480
Description: Semiquantitative RT-PCR was performed in a total volume of 25 μL reaction containing GeneAmp 1×PCR Buffer II (Applied Biosystems), 2.5 mM MgCl2, 200 μM each of dNTP, 200 nM each of primers, 0.5 U of AmpliTaq Gold DNA polymerase (Applied Biosystems) and 30˜50 ng cDNA. […] The PCR bands were visualized under ultraviolet light and photographed. The expression of the target gene was normalized by the expression of house keeping gene β-actin, which served as an internal control. […] Cells were then treated with 2 μM 5-aza-2′-deoxycytidine (“5-Aza”) (Sigma-Aldrich) for 5 days. The 5-Aza was replenished every day.

Nc1ncn([C@H]2C[C@H](O)[C@@H](CO)O2)c(=O)n1 [5-Aza, 5-aza-2′-deoxycytidine]
PAX5 gene expression after 5-Aza demethylation treatment (RT-PCR): restore expression
